The results in this text go back to patent publication US10617677B2, “Nuclear transport modulators and uses thereof” (Biogen MA Inc., priority 2012, dated 2020).

Series [1] has as its system inflammation-related CRM1 cargo proteins. Nature of the series: Immunofluorescence of nuclear localization of CRM1 cargos in HeLa and THP-1 cells. The conditions noted are these: 1-10 μM Compound 1 + 20 ng/mL TNFα, 4-24 h. The format is cell-based, human. Here is the method:
HeLa and THP-1 (human acute monocytic leukemia) cells were treated with inflammation inducing factor, TNFα, alone or in combination with 1-10 μM of Compound 1 for 4-24 h, and then were analyzed by immunofluorescence (IF) for the nuclear localization of inflammation-related CRM1 cargo proteins: IκB, Nrf2, HMGB1, FoxP3, FOXO1a, RxRα, PPARγ and NFκB (p65 subunit).
For the detection of IkB, Nrf2, RxRα and PPARγ localization, cells were pre-incubated with 10 μM Compound 1 for 30 minutes, followed by incubation with 20 ng/mL TNFα for 4 hrs in serum free media. […] IκB was detected by the primary rabbit monoclonal (E130) antibody from Abcam (ab32518); Nrf2 was detected by the primary rabbit polyclonal antibody from Santa Cruz (sc722); RxR alpha was detected by the primary rabbit polyclonal antibody from Santa Cruz (sc553); PPAR gamma was detected by the primary rabbit monoclonal […] antibody from Cell Signaling (#2443); Foxo1A was detected by the primary rabbit monoclonal [C29H4] antibody from Cell Signaling (#2880); HMGB1 was detected by the primary rabbit polyoclonal antibody from Abcam (ab18256); FoxP3 was detected by the primary rabbit polyclonal antibody from Abcam (ab10563); NFκB-p65 was detected by the primary rabbit monoclonal [C22B4] antibody from Cell Signaling (#4764). […]

Another series relates to A549 xenograft tumors. Nature of the series: A549 lung carcinoma xenograft in SCID mice. The class given is in vivo. The method, then: The A549 cell line was derived from explant culture of alveolar carcinoma tissue from a person. The cells were grown in Ham's F12-K tissue culture media with 10% fetal calf serum and 1% penicillin/streptomycin. Cells were routinely trypsinized and passaged 1:10. Thirty-two (32) female CB-17 SCID mice (Charles River Labs strain code 236), aged 5 to 6 weeks were used with a mean pre-treatment body weight of 16.3 grams. Mice were divided into four (4) groups of eight (8) prior to the initiation of treatment based on tumor volume. On the day of implantation, cells were washed in PBS, trypsinized and resuspended in complete media to a density of 2×10^7 cells/mL prior to being mixed with an equal volume of Matrigel. This mixture was then inoculated subcutaneously into mice in a volume of 0.1 mL using a 23G needle.
Animal weights and condition were recorded daily, and tumors were measured on Mondays, Wednesdays and Fridays with micro-calipers, and tumor volume was calculated as (length×width×width)/2.
Animals with weight loss of more than 20% of their starting weight were euthanized. Mice with weight loss of more than 15% of their starting weight were not treated again until weight loss recovered to less than 5% of their starting weight. Any animals with a tumor volume of more than 1500 mm^3 were euthanized.
Dosing solutions were prepared fresh on each day of dosing. Compound 2 was supplied as a lyophilized powder containing 69.61% Compound 2 with the balance made up of Pluronic F-68 and PVP K29/32. This was prepared by dissolving the lyophilized powder in sterile water. Cisplatin was dissolved at 5 mg/mL in DMSO and diluted 1:10 in sterile water for injection. All test articles were administered in a volume of 0.1 mL/10 g body weight.
Statistical differences between treatment groups were determined using Mann-Whitney Rank Sum or ANOVA tests with a critical value of 0.05.

The test system of the next series is Z-138 xenograft tumors. Nature of the series: Z-138 lymphoma xenograft in SCID mice. The format is in vivo. Here is the method:
Z-138 (ATCC # CRL-3001) mantle cell lymphoma cells were obtained from ATCC. These cells were grown in IMEM medium supplemented with 10% horse serum, 1% penicillin and streptomycin, and 2 mM L-glutamine. […] Twenty-four (24) female CB-17 SCID mice (Charles River Labs strain code 236), aged 5 to 6 weeks were used. The SCID mice were inoculated in the left flank with Z-138 cells in a volume of 0.2 mL, equivalent to 4×10^7 cells per mouse. […] Mice were allocated to […] prior to the initiation of treatment based on tumor volume such that mean tumor volume in each group was within the range of 77 to 92 mm^3. […] Animals were fed with Labdiet® 5001 rodent chow and sterile water ad libitum. […] Animals with weight loss of more than 20% of their starting weight were euthanized. Mice with weight loss of more than 15% of their starting weight were not treated again until weight loss recovered to less than 5% of their starting weight. Any animals with a tumor volume of more than 1500 mm^3 were euthanized. Dosing solutions were prepared fresh on each day of dosing. […] This was prepared by dissolving the lyophilized powder in sterile water.

Another series deals with obese Zucker rats. Put plainly: Food intake and body weight in Zucker rats. The class given is in vivo. The method, then:
Twenty-one (21) male Zucker rats aged 7 months were allocated into 3 groups of N=7 based on equivalent body weights and food intakes. An additional group of N=7 age matched Zucker lean controls were included as a control. Body weights and food and water intakes were measured at approximately the same time each day (14:30-15:30 h). On treatment days, dosing was at 14:30-15:30 h (approximately 2 hours before lights off).
The Zucker obese and lean controls were orally treated with vehicle (10 mL/kg dose volume; 0.5% Pluronic F68 and 0.5% PVP K29/32 in water) on each weekday. Both Compound 2 (1.5 mg/kg and 3 mg/kg) groups were orally treated on each weekday (10 mL/kg dose volume; 0.5% Pluronic F68 and 0.5% PVP K29/32 in water). Prior to the treatment phase, 4 days baseline data were collected. The treatment phase was for 16 days and a washout phase of 6 days was also included.

Where [2] appears, read: 1.5-3 mg/kg oral, 16 day treatment period.

Entries after “also recorded” stand apart in the source; their conditions may differ.

On to `CC(C)(C)C(=O)NNC(=O)/C=C\n1cnc(-c2cc(C(F)(F)F)cc(C(F)(F)F)c2)n1` [Compound 1, (Z)-3-(3-(3,5-bis(trifluoromethyl)phenyl)-1H-1,2,4-triazol-1-yl)-N′-pivaloylacrylohydrazide], for which the “nuclear localization of IκB, Nrf2, HMGB1, FoxP3, FOXO1a, RxRα, PPARγ and NFκB” value in series [1] is “nuclear localization of the above cargos, even in the presence of TNFα”.

For `O=C(/C=C\n1cnc(-c2cc(C(F)(F)F)cc(C(F)(F)F)c2)n1)NNC(=O)CN1CCOCC1` [Compound 2, (Z)-3-(3-(3,5-bis(trifluoromethyl)phenyl)-1H-1,2,4-triazol-1-yl)-N′-(2-morpholinoacetyl)acrylohydrazide], the “tumor growth versus vehicle control group (mean AUC of tumor volume, one-way ANOVA)” value in the series on A549 xenograft tumors (Compound 2 5 or 10 mg/kg PO, cisplatin 5 mg/kg IP) is “antitumor effect at both 5 mg/kg and 10 mg/kg doses in a dose dependent manner”. Further, the mean tumor volume with A549 xenograft tumors (Day 1, 5 mg/kg PO MWF) turned out to be 101 mm^3; in the series with A549 xenograft tumors (Day 1, 10 mg/kg PO MWF), 101 mm^3; in the series on A549 xenograft tumors (Day 29, 5 mg/kg PO MWF), 1231 mm^3; in the series on A549 xenograft tumors (Day 29, 10 mg/kg PO MWF), 686 mm^3. For the same molecule, the weight loss result with Z-138 xenograft tumors (15 mg/kg PO MWF) was “Some weight loss was observed”. Moreover, the “tumor growth relative to vehicle (area under the growth curves, ANOVA)” value in the series with Z-138 xenograft tumors (Compound 2 15 or 7.5 mg/kg PO MWF, cyclophosphamide 80 mg/kg IP) was “antitumor effect at both 7.5 mg/kg and 15 mg/kg doses in a dose dependent manner”. Also, the entries for the “body weight gain versus Zucker vehicle group” value in the series with obese Zucker rats (1.5 mg/kg oral) and with obese Zucker rats (3 mg/kg oral) were “no significant difference in weight gain” and “significant difference in body weight gain; also recorded: lower weight gain”, respectively. Moreover, in the series on obese Zucker rats (setting [2]), the “body weight compared to Zucker control group” value is listed as “dose-related decrease”. Also, the “daily food intake compared to Zucker control group” value in the series on obese Zucker rats (setting [2]) was “dose-related decrease; also recorded: dose dependent decrease”. Besides, in the series with obese Zucker rats (setting [2]), the water intake entry is “significantly increased water intake”.
